Measured values from ChEMBL document CHEMBL1201862, “PubChem BioAssay data set” (2004).
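Assay format: 96-well plates, 48-hour exposure. The concentration for 50% growth inhibition is given as GI50.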 Active and inactive are the calls of the source. Cut-off read from the data, not from the text of the source: active = GI50 up to about 1.1 µM and inactive = higher.

Key:
Assay in all cases: NCI tumour cell line growth inhibition, 48 h
A498 = test system: A498
SK-OV-3 = test system: SK-OV-3
HT-29 = test system: HT-29
KM12 = test system: KM12
SR = test system: SR
A549 = test system: A549
OVCAR-5 = test system: OVCAR-5
LOX IMVI = test system: LOX IMVI
NCI-H23 = test system: NCI-H23
SW-620 = test system: SW-620
K562 = test system: K562
CAKI-1 = test system: CAKI-1
UACC-62 = test system: UACC-62
SNB-75 = test system: SNB-75
Malme-3M = test system: Malme-3M
ACHN = test system: ACHN
M14 = test system: M14
NCI/ADR-RES = test system: NCI/ADR-RES
PC-3 = test system: PC-3

Measured: GI50

CCOc1ccccc1Nc1nc(C)c(C(=O)CC(=O)C(=O)Nc2ccccc2)s1
inactive: A498 88.5 µM | SK-OV-3 > 100 µM | HT-29 37.1 µM | KM12 45.6 µM | SR 49.7 µM | A549 62.8 µM | OVCAR-5 > 100 µM | LOX IMVI 40.7 µM | NCI-H23 36.2 µM | SW-620 72.4 µM | K562 34.8 µM | CAKI-1 47.8 µM | UACC-62 37.9 µM | SNB-75 25.2 µM | Malme-3M > 100 µM | ACHN 37.8 µM | M14 > 100 µM

O=C(NNc1cn[nH]c(=O)c1Cl)/C(=C/c1ccc2c(c1)OCO2)NC(=O)c1ccccc1
inactive: SK-OV-3 > 100 µM | HT-29 41.5 µM | KM12 34.7 µM | NCI/ADR-RES 35.6 µM | A549 > 100 µM | OVCAR-5 > 100 µM | LOX IMVI 30.9 µM | NCI-H23 42.5 µM | SW-620 41.2 µM | PC-3 61.2 µM | CAKI-1 22.9 µM | UACC-62 35.2 µM | SNB-75 24.9 µM | ACHN 59.8 µM | M14 61.8 µM

CNC(=O)CCNC(=O)CCC(=O)OC
inactive: A498 > 100 µM | SK-OV-3 > 100 µM | HT-29 > 100 µM | KM12 > 100 µM | NCI/ADR-RES > 100 µM | A549 > 100 µM | OVCAR-5 > 100 µM | NCI-H23 > 100 µM | SW-620 > 100 µM | K562 > 100 µM | PC-3 > 100 µM | CAKI-1 > 100 µM | UACC-62 > 100 µM | ACHN > 100 µM | M14 > 100 µM

O=C(O)Cn1nnc2c(=O)[nH][nH]c(=O)c21
inactive: HT-29 > 100 µM | KM12 > 100 µM | SR > 100 µM | NCI/ADR-RES > 100 µM | A549 > 100 µM | OVCAR-5 > 100 µM | LOX IMVI > 100 µM | NCI-H23 > 100 µM | K562 > 10 µM | CAKI-1 > 100 µM | Malme-3M > 100 µM | ACHN > 100 µM | M14 > 100 µM

Cc1cccc(C(C)C)c1NC(=O)CCl
inactive: A498 > 100 µM | SK-OV-3 67.8 µM | HT-29 49.1 µM | KM12 55.7 µM | SR 47.8 µM | A549 > 100 µM | OVCAR-5 > 100 µM | LOX IMVI 37.1 µM | NCI-H23 22.9 µM | SW-620 39.6 µM | K562 56.2 µM | CAKI-1 27.9 µM | UACC-62 24.4 µM | SNB-75 33.7 µM | Malme-3M 81.7 µM | ACHN 73.3 µM | M14 65.8 µM

COc1ccc(NC(=O)C2C(=O)N(c3ccc(OC)cc3)C(=O)/C2=N/O)cc1 (configuration not stated)
inactive: A498 30.7 µM | SK-OV-3 20.2 µM | HT-29 38.6 µM | KM12 23 µM | SR > 100 µM | A549 33.9 µM | OVCAR-5 > 100 µM | LOX IMVI 57.8 µM | NCI-H23 43.4 µM | SW-620 > 61.9 µM | K562 > 100 µM | CAKI-1 32.7 µM | UACC-62 21.8 µM | SNB-75 32.2 µM | Malme-3M 20.4 µM | ACHN 21.8 µM | M14 34 µM

c1ccc2c(c1)N=C(c1cccc3ccccc13)CC(c1ccc3c(c1)OCO3)S2 (configuration not stated)
inactive: A498 49 µM | SK-OV-3 > 100 µM | HT-29 > 100 µM | KM12 > 100 µM | SR > 100 µM | A549 > 100 µM | OVCAR-5 > 100 µM | LOX IMVI > 100 µM | NCI-H23 > 100 µM | SW-620 > 100 µM | K562 > 100 µM | CAKI-1 > 100 µM | UACC-62 > 100 µM | SNB-75 > 100 µM | Malme-3M 70.6 µM | ACHN > 100 µM | M14 25.4 µM

Clc1ccc(Nc2nnc(CNc3ccc(-c4nnc(Nc5ccc(Cl)cc5)s4)cc3)s2)cc1
inactive: A498 28.9 µM | SK-OV-3 47.3 µM | HT-29 11 µM | KM12 11 µM | NCI/ADR-RES 48.4 µM | A549 16.1 µM | OVCAR-5 23.6 µM | NCI-H23 39.3 µM | SW-620 28.4 µM | K562 7.71 µM | PC-3 15 µM | CAKI-1 42.6 µM | UACC-62 21.2 µM | SNB-75 > 100 µM | Malme-3M 52.5 µM | ACHN 20.2 µM | M14 22.8 µM

O=CCC1CCCCC1
inactive: A498 > 100 µM | SK-OV-3 > 100 µM | KM12 88.7 µM | NCI/ADR-RES > 100 µM | A549 > 100 µM | OVCAR-5 > 100 µM | LOX IMVI > 100 µM | NCI-H23 > 100 µM | SW-620 > 100 µM | K562 > 100 µM | PC-3 > 100 µM | CAKI-1 > 100 µM | SNB-75 > 100 µM | Malme-3M > 100 µM | ACHN > 100 µM | M14 > 100 µM

CN(C)C1(N(C)C)Oc2c(c(=O)n(C)c(=O)n2C)C(c2ccc(F)cc2)C1(F)F (configuration not stated)
inactive: A498 > 100 µM | SK-OV-3 > 100 µM | KM12 > 100 µM | NCI/ADR-RES > 100 µM | A549 > 100 µM | OVCAR-5 > 100 µM | LOX IMVI > 100 µM | NCI-H23 > 100 µM | SW-620 > 100 µM | PC-3 > 100 µM | CAKI-1 > 100 µM | UACC-62 > 100 µM | SNB-75 > 100 µM | ACHN > 100 µM | M14 > 100 µM

CC(=O)/C(=N\O)C(=O)NCc1ccccc1
inactive: A498 > 100 µM | SK-OV-3 > 100 µM | HT-29 > 100 µM | KM12 > 100 µM | SR > 100 µM | A549 > 100 µM | OVCAR-5 > 100 µM | LOX IMVI 20.2 µM | NCI-H23 > 100 µM | SW-620 15.9 µM | K562 36.4 µM | CAKI-1 > 100 µM | UACC-62 > 100 µM | SNB-75 > 100 µM | Malme-3M > 100 µM | ACHN > 100 µM

Cc1ccc(S(=O)(=O)Nn2c(S)c(C#N)c(-c3ccc(N(C)C)cc3)c(C#N)c2=O)cc1
inactive: A498 17.3 µM | SK-OV-3 48.8 µM | KM12 24.6 µM | SR 23.7 µM | NCI/ADR-RES 32 µM | A549 40.5 µM | OVCAR-5 35 µM | LOX IMVI 22.1 µM | NCI-H23 19.1 µM | SW-620 18.1 µM | K562 38.8 µM | CAKI-1 > 100 µM | UACC-62 25.7 µM | SNB-75 35.2 µM | Malme-3M 18.7 µM | ACHN 20.6 µM | M14 31.2 µM
